Tests used:
[1] = Moisturizing test: moisturizing effect by water retention force; format: physicochemical; conditions: for moisturizing effect (in words): conclusion from Table 43, compared with ascorbic acid
Protocol: A sample shown later was dried, and the dried sample was spread in an amount of about 0.4 g (this weight is represented by W0) on the bottom of a weighing bottle (diameter: 3.6 cm, height excluding lid: 1.8 cm) so as to give uniform thickness. The sample contained in the weighing bottle was allowed to stand still in a constant humidity and constant temperature vessel (ENVIROS KCL-1000, TOKYO RIKAKIKAI CO, LTD) under environments of 25° C. and 65% RH. The weight was measured periodically, waiting until sufficient moisture absorption to attain equilibrium of weight increase (about 48 hours). Thereafter, the sample was transferred to under environments of 25° C. and 20% RH (in sealed vessel containing a saturated CH3COOK aqueous solution filled in the bottom part). From the weight after 24 hours (this weight is represented by W1), the amount of retained water per 1 g of the dried sample was calculated according to the following formula. (W1−W0)/W0
From the water amount thus calculated, the moisturizing effect was judged based on the following judging criterion, and the results are shown in Table 43.
Three compounds: 2,3-di-O-glyceryl ascorbic acid, 2,3-di-O-phenylglyceryl ascorbic acid, and glycerin, and
Six compounds: ascorbic acid, ascorbic acid glucoside, 2-O-glyceryl ascorbic acid, 3-O-glyceryl ascorbic acid, 3-O-butylglyceryl ascorbic acid and 3-O-octylglyceryl ascorbic acid, which were adjusted to pH7 with a dilute sodium hydroxide aqueous solution and concentrated.
◯: 25 mg or more and less than 40 mg
Δ: 10 mg or more and less than 25 mg

B16 melanoma 4A5 cell = experiment: Whitening test: theophylline-induced melanine production in B16 melanoma 4A5 cells; format: cell-based, mouse; conditions: sample at a concentration of 100 μM or less; theophylline-induced melanine production; 3 days culture; N=4;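 further: grades: ± under 20% + 20-40% ++ 40-70% +++ 70-100% suppression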
Protocol: As a test for a whitening effect, evaluation of the action of B16 melanoma 4A5 cell on theophylline-induced melanine production was carried out on an ascorbic acid derivative of the present invention, according to the following procedure. The same evaluation was carried out also on ascorbic acid, known compounds: ascorbic acid salts, and ascorbic acid derivatives, as comparison. The results are shown in Tables 38 to 40. • (1) B16 mouse melanoma 4A5 strain was sowed onto a 48-well plate at a cell density of 2.0×10^4 cells/well. • (2) Culturing was performed for 24 hours with Dulbecco's Modified Eagle's medium (manufactured by SIGMA. Hereinafter, abbreviated as D-MEM) containing 10% fetal bovine serum (manufactured by Roshe Diagnostics). Then, it was changed to 0.2 mM theophylline and a 10% fetal bovine serum-containing D-MEM which contains a sample of given concentration. • (3) After culturing for 3 days in the co-existence of a sample, the medium was removed using an aspirator. Then, after distilled water was added, cells were broken by an ultrasonic wave. • (4) Thereafter, the amount of protein was determined using BCA protein assay kit (manufactured by PIERCE), and the produced amount of melanine was measured by an alkali solubilizing method. To the cell-destructed solution was added sodium hydroxide so as to give a final concentration of 2N and the mixture was dissolved by heating (60° C., 15 minutes), then, the absorbance at 450 nm was measured using a micro plate reader. The melanine amount was calculated from a calibration curve made using synthetic melanine (SIGMA) as a standard. The melanine amount per unit protein was calculated by dividing the melanine amount by the protein amount. • (5) The melanine production suppressing rate was calculated according to the following formula. Melanine production suppressing rate (%)=[1−(A−B)/(C−B)]×100 [wherein, A represents the melanine amount per unit protein (g/g) in adding a sample, B represents the melanine amount per unit protein (g/g) in the normal group, and C represents the melanine amount per unit protein (g/g) in the control group.]
In the following Tables, the melanine production suppressing rate in measuring a sample at a concentration of 100 μM or less is expressed as described below. The measurement was carried out at N=4.

[2] = Stability Test 1: 2% aqueous solution, pH7, room temperature, 4 weeks (residual rate, odor, coloration); format: physicochemical
Protocol: (§1) Aqueous solutions (2%) of various test samples were adjusted to pH7 with a dilute sodium hydroxide aqueous solution, and charged into 50 mL screw tubes, and the tubes were sealed and stored at room temperature for 4 weeks. Thereafter, HPLC measurement were performed (using liquid chromatography manufactured by Tosoh Corp.) and the residual rate was obtained based on the peak area. The residual rate, odor(odor change) and degree of coloration were evaluated based on the following methods and standards, and the results are shown in Table 41.
◯: 80% or more and less than 90%
Δ: 60% or more and less than 80%
X: 20% or more and less than 60%
It was evaluated according to the following criterion by 10 panelists.
Based on the evaluation results, classification was conducted as shown below.
◯: total point of 10 panelists is 25 or more
Δ: total point of 10 panelists is 16 to 24
X: total point of 10 panelists is 15 or less
3: almost no change as compared with that immediately after preparation
2: coloration is observed as compared with that immediately after preparation
1: intense coloration is observed as compared with that immediately after preparation

[3] = Stability Test 2: 2% aqueous solution, pH7, 50° C., 4 weeks (residual rate, odor, coloration); format: physicochemical
Protocol: as §1
The same test as in Test Example 2 was carried out excepting that the sample was stored at 50° C. for 4 weeks instead of storing at room temperature for 4 weeks.

[4] = tested on: Normal human dermal fibroblasts; experiment: Collagen production of human fibroblast (Sircol collagen assay, 100 μM, 48 hours); format: cell-based; conditions: cultured 48 hours; for activity at 100 µM: Homo sapiens, Fibroblast, N=4, read-out: Collagen production promoting effect (collagen production amount, % of control group)
Protocol: (§2) Normal human dermal fibroblasts were regulated with a 10% (v/v) fetal bovine serum (manufactured by Roshe Diagnostics)-containing D-MEM so as to give a cell density of 2.5×10^4 cells/well, then, pre-incubation for 24 hours was performed on a 96-well plate. After the medium was removed, a sample regulated with a 5% (v/v) fetal bovine serum-containing D-MEM to a concentration of 100 μM was added to each well, then, cultured for 48 hours under 37° C. and 5% CO2. After completion of culturing, the amount of free collagen was measured using Sircol collagen assay kit (manufactured by Biocolor). The measurement was carried out at N=4.
The collagen production amount in measuring a sample at a concentration of 100 μM was compared with the control group, and the results thereof (% value when the control group is 100%) are shown in Tables 44 and 45 based on the following standard.

[5] = tested on: Normal human dermal fibroblasts; experiment: Collagen production of human fibroblast 2 (100 μM or 500 μM; 2, 4 and 7 days); format: cell-based; conditions: for Collagen production amount in comparison with the control group (% value when the control group is 100%): Table 46, 100 μM or 500 μM (not stated which), average ± standard error, N=4; for collagen production promoting effect over time (in words): 100 μM or 500 μM, culturing 2, 4 and 7 days
Protocol: as §2
Free collagen was measured under the same conditions as in Test Example 5 excepting that the concentration of each sample was 100 μM or 500 μM and culturing was carried out for 2 days, 4 days and 7 days. The measurement was carried out at N=4, and the average and standard error, in four test examples, of values of the collagen production amount in comparison with the control group (% value when the control group is 100%) are shown in Tables 46 and 47.

[6] = storage period 2 weeks, 10 panelists
[7] = storage period 4 weeks, 10 panelists

## O=C1O[C@H]([C@@H](O)CO)C(OCC(O)CO)=C1O (stereo partly drawn) [3-O-glycerylascorbic acid]
[1]
  Judgement of moisturizing effect (water amount): ◯ (◯: 25 mg or more and less than 40 mg)

## O=C1O[C@H]([C@@H](O)CO)C(OCC(O)CO)=C1OCC(O)CO (stereo partly drawn) [Example 4, 2,3-di-O-glyceryl ascorbic acid]
B16 melanoma 4A5 cell
  Whitening effect (melanine production suppressing rate): + (20 to 40%:+)
[2]; storage period 0
  Residual rate: ⊚ (⊚: 90% or more)
[2]; storage period 0, 10 panelists
  Coloration: ◯ (◯: total point of 10 panelists is 25 or more)
  Odor: ◯ (◯: total point of 10 panelists is 25 or more)
[2]; storage period 2 weeks
  Residual rate: ⊚ (⊚: 90% or more)
[2]; [6]
  Coloration: ◯ (◯: total point of 10 panelists is 25 or more)
  Odor: ◯ (◯: total point of 10 panelists is 25 or more)
[2]; storage period 4 weeks
  Residual rate: ⊚ (⊚: 90% or more)
[2]; [7]
  Coloration: ◯ (◯: total point of 10 panelists is 25 or more)
  Odor: ◯ (◯: total point of 10 panelists is 25 or more)
[3]; storage period 0
  Residual rate: ⊚ (⊚: 90% or more)
[3]; storage period 0, 10 panelists
  Coloration: ◯ (◯: total point of 10 panelists is 25 or more)
  Odor: ◯ (◯: total point of 10 panelists is 25 or more)
[3]; storage period 2 weeks
  Residual rate: ⊚ (⊚: 90% or more)
[3]; [6]
  Coloration: ◯ (◯: total point of 10 panelists is 25 or more)
  Odor: ◯ (◯: total point of 10 panelists is 25 or more)
[3]; storage period 4 weeks
  Residual rate: ⊚ (⊚: 90% or more)
[3]; [7]
  Coloration: ◯ (◯: total point of 10 panelists is 25 or more)
  Odor: ◯ (◯: total point of 10 panelists is 25 or more)
[1]
  moisturizing effect (in words): excellent moisturizing effect by far than ascorbic acid
[4]
  activity at 100 µM: 100 to 200%
[5]; culturing period 2 days
  Collagen production amount in comparison with the control group (% value when the control group is 100%): 161 ± 8%
[5]; culturing period 4 days
  Collagen production amount in comparison with the control group (% value when the control group is 100%): 171 ± 7%
[5]; culturing period 7 days
  Collagen production amount in comparison with the control group (% value when the control group is 100%): 209 ± 27%

## O=C1O[C@H]([C@@H](O)CO)C(O)=C1OCC(O)CO (stereo partly drawn) [2-O-glycerylascorbic acid]
[1]
  Judgement of moisturizing effect (water amount): ⊚ (⊚: 40 mg or more)

## OCC(O)CO [glycerin, reference compound]
[1]
  Judgement of moisturizing effect (water amount): ⊚ (⊚: 40 mg or more)

## 3-O-octylglycerylascorbic acid
[1]
  Judgement of moisturizing effect (water amount): Δ (Δ: 10 mg or more and less than 25 mg)

## O=C1O[C@H]([C@@H](O)CO)C(O)=C1O[C@H]1O[C@H](CO)[C@@H](O)[C@H](O)[C@H]1O [ascorbic acid glucoside, reference compound]
B16 melanoma 4A5 cell
  Whitening effect (melanine production suppressing rate): + (20 to 40%:+)
[1]
  Judgement of moisturizing effect (water amount): ⊚ (⊚: 40 mg or more)
[4]; N=4
  Collagen production promoting effect (collagen production amount, % of control group): + (100 to 200%:+)
[5]
  collagen production promoting effect over time (in words): lowers over time
[5]; culturing period 2 days
  Collagen production amount in comparison with the control group (% value when the control group is 100%): 193 ± 4%
[5]; culturing period 4 days
  Collagen production amount in comparison with the control group (% value when the control group is 100%): 239 ± 2%
[5]; culturing period 7 days
  Collagen production amount in comparison with the control group (% value when the control group is 100%): 179 ± 14%

## CCOC1=C(O)C(=O)O[C@@H]1[C@@H](O)CO [3-O-ethylascorbic acid, reference compound]
B16 melanoma 4A5 cell
  Whitening effect (melanine production suppressing rate): + (20 to 40%:+)
[2]; storage period 0
  Residual rate: ⊚ (⊚: 90% or more)
[2]; storage period 0, 10 panelists
  Coloration: ◯ (◯: total point of 10 panelists is 25 or more)
  Odor: ◯ (◯: total point of 10 panelists is 25 or more)
[2]; storage period 2 weeks
  Residual rate: ◯ (◯: 80% or more and less than 90%)
[2]; [6]
  Coloration: ◯ (◯: total point of 10 panelists is 25 or more)
  Odor: ◯ (◯: total point of 10 panelists is 25 or more)
[2]; storage period 4 weeks
  Residual rate: ◯ (◯: 80% or more and less than 90%)
[2]; [7]
  Coloration: Δ (Δ: total point of 10 panelists is 16 to 24)
  Odor: ◯ (◯: total point of 10 panelists is 25 or more)
[3]; storage period 0
  Residual rate: ◯ (◯: 80% or more and less than 90%)
[3]; storage period 0, 10 panelists
  Coloration: ◯ (◯: total point of 10 panelists is 25 or more)
  Odor: ◯ (◯: total point of 10 panelists is 25 or more)
[3]; storage period 2 weeks
  Residual rate: X (X: 20% or more and less than 60%)
[3]; [6]
  Coloration: Δ (Δ: total point of 10 panelists is 16 to 24)
  Odor: Δ (Δ: total point of 10 panelists is 16 to 24)
[3]; storage period 4 weeks
  Residual rate: X (X: 20% or more and less than 60%)
[3]; [7]
  Coloration: Δ (Δ: total point of 10 panelists is 16 to 24)
  Odor: Δ (Δ: total point of 10 panelists is 16 to 24)
[4]
  activity at 100 µM: 100 to 200%
[5]
  collagen production promoting effect over time (in words): lowers over time
[5]; culturing period 2 days
  Collagen production amount in comparison with the control group (% value when the control group is 100%): 140 ± 4%
[5]; culturing period 4 days
  Collagen production amount in comparison with the control group (% value when the control group is 100%): 138 ± 2%
[5]; culturing period 7 days
  Collagen production amount in comparison with the control group (% value when the control group is 100%): 106 ± 14%

## 2,3-di-O-phenylglycerylascorbic acid
[1]
  Judgement of moisturizing effect (water amount): Δ (Δ: 10 mg or more and less than 25 mg)

## O=C1O[C@H]([C@@H](O)CO)C(OCC(O)CO)=C1O (stereo partly drawn) [Example 1, 3-O-glyceryl ascorbic acid]
[1]
  moisturizing effect (in words): more excellent moisturizing effect than ascorbic acid

## O=C1O[C@H]([C@@H](O)CO)C(OCC(O)CO)=C1OCC(O)CO (stereo partly drawn) [2,3-di-O-glycerylascorbic acid]
[1]
  Judgement of moisturizing effect (water amount): ⊚ (⊚: 40 mg or more)

## 3-O-butylglycerylascorbic acid
[1]
  Judgement of moisturizing effect (water amount): ◯ (◯: 25 mg or more and less than 40 mg)

Reference: US8163939B2, “Ascorbic acid derivative or salt thereof, production method thereof, and cosmetic” (Seikwa Kasei Company, Limited, priority 2007, dated 2012)
